Results published in patent publication US6667387B1, “HCV core peptides” (priority 1992, dated 2003).
Ends that are not written are not given here.

Assays:
[1] = ELISA with seronegative / negative control sera (specificity); assay type: binding, human
In short: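 Specificity readout is OD at 450 nm (HRP goat anti-human Ig, TMB/H2O2, sulfuric acid stop), with ≥0.250 counted positive. Seronegative donor sera (typically 1:100, 1 h, 37° C) were applied to casein-blocked wells coated with peptide directly or via streptavidin capture of biotinylated peptide.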

[2] = tested on: antibodies in sera from HCV-seropositive donors; experiment: ELISA with HCV antibody-positive sera (biotinylated peptides on streptavidin- or avidin-coated plates, unbiotinylated peptides coated directly); assay type: binding, human; conditions: for PEPTIDE ELISA (O.D.): Table 12, biotinylated 20-mers
In short: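 Peptides coated either directly at 2–5 or 3 μg/ml in carbonate buffer pH 9.6, or biotinylated at 1 μg/ml on streptavidin-coated wells (3 μg/ml). Plates casein-blocked, then human sera (1:100 or 1:20) incubated 1 h at 37° C. Bound antibody detected with HRP anti-human Ig/TMB, read as OD450.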

Sequence: PQRKTKRNTNRRPQDVKFPG
- optical density (450 nm) ([1]; Table 4C, negative serum): 0.070
- optical density (450 nm) ([1]; Table 5, sample 1747 (negative), peptide concentration 0.01 micrograms per milliliter, listed as HCV peptide II): 0.045
- optical density (450 nm) ([1]; Table 5, sample 1747 (negative), peptide concentration 0.03 micrograms per milliliter, listed as HCV peptide II): 0.045
- optical density (450 nm) ([1]; Table 5, sample 1747 (negative), peptide concentration 0.1 micrograms per milliliter, listed as HCV peptide II): 0.045
- optical density (450 nm) ([1]; Table 5, sample 1747 (negative), peptide concentration 0.3 micrograms per milliliter, listed as HCV peptide II): 0.046
- optical density (450 nm) ([1]; Table 5, sample 1747 (negative), peptide concentration 1.0 micrograms per milliliter, listed as HCV peptide II): 0.071
- optical density (450 nm) ([1]; Table 5, sample 1747 (negative), peptide concentration 3.0 micrograms per milliliter, listed as HCV peptide II): 0.064
- optical density (450 nm) ([1]; Table 5, sample 1781 (negative), peptide concentration 0.01 micrograms per milliliter, listed as HCV peptide II): 0.053
- optical density (450 nm) ([1]; Table 5, sample 1781 (negative), peptide concentration 0.03 micrograms per milliliter, listed as HCV peptide II): 0.049
- optical density (450 nm) ([1]; Table 5, sample 1781 (negative), peptide concentration 0.1 micrograms per milliliter, listed as HCV peptide II): 0.047
- optical density (450 nm) ([1]; Table 5, sample 1781 (negative), peptide concentration 0.3 micrograms per milliliter, listed as HCV peptide II): 0.051
- optical density (450 nm) ([1]; Table 5, sample 1781 (negative), peptide concentration 1.0 micrograms per milliliter, listed as HCV peptide II): 0.055
- optical density (450 nm) ([1]; Table 5, sample 1781 (negative), peptide concentration 3.0 micrograms per milliliter, listed as HCV peptide II): 0.057
- optical density (450 nm) ([1]; Table 8, serum 1782 (blood donor), Avidin): 0.057
- optical density (450 nm) ([1]; Table 8, serum 1784 (blood donor), Avidin): 0.045
- optical density (450 nm) ([1]; Table 8, serum 1785 (blood donor), Avidin): 0.045
- optical density (450 nm) ([1]; Table 8, serum 1794 (blood donor), Avidin): 0.153
- optical density (450 nm) ([2]; Table 4C, serum 8241, 20-fold dilution): 0.545
- optical density (450 nm) ([2]; Table 4C, serum 8242, 20-fold dilution): 2.415
- optical density (450 nm) ([2]; Table 4C, serum 8243, 20-fold dilution): 2.306
- optical density (450 nm) ([2]; Table 4C, serum 8247, 20-fold dilution): 1.975
- optical density (450 nm) ([2]; Table 4C, serum 8250, 20-fold dilution): 0.357
- optical density (450 nm) ([2]; Table 4C, serum 8271, 20-fold dilution): 1.284
- optical density (450 nm) ([2]; Table 4C, serum 8273, 20-fold dilution): 2.769
- optical density (450 nm) ([2]; Table 4C, serum 8274, 20-fold dilution): 2.943
- optical density (450 nm) ([2]; Table 4C, serum 8275, 20-fold dilution): 2.030
- optical density (450 nm) ([2]; Table 4C, serum 8276, 20-fold dilution): 2.348
- optical density (450 nm) ([2]; Table 4C, serum 8277, 20-fold dilution): 2.572
- optical density (450 nm) ([2]; Table 4C, serum 8278, 20-fold dilution): 2.022
- optical density (450 nm) ([2]; Table 5, sample 8242 (positive), peptide concentration 0.01 micrograms per milliliter, listed as HCV peptide II): 1.196
- optical density (450 nm) ([2]; Table 5, sample 8242 (positive), peptide concentration 0.03 micrograms per milliliter, listed as HCV peptide II): 1.481
- optical density (450 nm) ([2]; Table 5, sample 8242 (positive), peptide concentration 0.1 micrograms per milliliter, listed as HCV peptide II): 1.399
- optical density (450 nm) ([2]; Table 5, sample 8242 (positive), peptide concentration 0.3 micrograms per milliliter, listed as HCV peptide II): 1.365
- optical density (450 nm) ([2]; Table 5, sample 8242 (positive), peptide concentration 1.0 micrograms per milliliter, listed as HCV peptide II): 1.368
- optical density (450 nm) ([2]; Table 5, sample 8242 (positive), peptide concentration 3.0 micrograms per milliliter, listed as HCV peptide II): 1.427
- optical density (450 nm) ([2]; Table 5, sample 8243 (positive), peptide concentration 0.01 micrograms per milliliter, listed as HCV peptide II): 1.088
- optical density (450 nm) ([2]; Table 5, sample 8243 (positive), peptide concentration 0.03 micrograms per milliliter, listed as HCV peptide II): 1.597
- optical density (450 nm) ([2]; Table 5, sample 8243 (positive), peptide concentration 0.1 micrograms per milliliter, listed as HCV peptide II): 1.639
- optical density (450 nm) ([2]; Table 5, sample 8243 (positive), peptide concentration 0.3 micrograms per milliliter, listed as HCV peptide II): 1.608
- optical density (450 nm) ([2]; Table 5, sample 8243 (positive), peptide concentration 1.0 micrograms per milliliter, listed as HCV peptide II): 1.652
- optical density (450 nm) ([2]; Table 5, sample 8243 (positive), peptide concentration 3.0 micrograms per milliliter, listed as HCV peptide II): 1.668
- optical density (450 nm) ([2]; Table 5, sample 8318 (positive), peptide concentration 0.01 micrograms per milliliter, listed as HCV peptide II): 2.002
- optical density (450 nm) ([2]; Table 5, sample 8318 (positive), peptide concentration 0.03 micrograms per milliliter, listed as HCV peptide II): 2.181
- optical density (450 nm) ([2]; Table 5, sample 8318 (positive), peptide concentration 0.1 micrograms per milliliter, listed as HCV peptide II): 2.001
- optical density (450 nm) ([2]; Table 5, sample 8318 (positive), peptide concentration 0.3 micrograms per milliliter, listed as HCV peptide II): 1.958
- optical density (450 nm) ([2]; Table 5, sample 8318 (positive), peptide concentration 1.0 micrograms per milliliter, listed as HCV peptide II): 1.993
- optical density (450 nm) ([2]; Table 5, sample 8318 (positive), peptide concentration 3.0 micrograms per milliliter, listed as HCV peptide II): 2.016
- optical density (450 nm) ([2]; Table 5, sample 8320 (positive), peptide concentration 0.01 micrograms per milliliter, listed as HCV peptide II): 2.519
- optical density (450 nm) ([2]; Table 5, sample 8320 (positive), peptide concentration 0.03 micrograms per milliliter, listed as HCV peptide II): 2.757
- optical density (450 nm) ([2]; Table 5, sample 8320 (positive), peptide concentration 0.1 micrograms per milliliter, listed as HCV peptide II): 2.718
- optical density (450 nm) ([2]; Table 5, sample 8320 (positive), peptide concentration 0.3 micrograms per milliliter, listed as HCV peptide II): 2.684
- optical density (450 nm) ([2]; Table 5, sample 8320 (positive), peptide concentration 1.0 micrograms per milliliter, listed as HCV peptide II): 2.684
- optical density (450 nm) ([2]; Table 5, sample 8320 (positive), peptide concentration 3.0 micrograms per milliliter, listed as HCV peptide II): 2.718
- optical density (450 nm) ([2]; Table 8, serum 8243 (HCV), Avidin): 1.430
- optical density (450 nm) ([2]; Table 8, serum 8247 (HCV), Avidin): 1.356
- optical density (450 nm) ([2]; Table 8, serum 8248 (HCV), Avidin): 2.287
- optical density (450 nm) ([2]; Table 8, serum 8269 (HCV), Avidin): 1.213
- optical density (450 nm) ([2]; Table 8, serum 8273 (HCV), Avidin): 2.017
- optical density (450 nm) ([2]; Table 8, serum 8278 (HCV), Avidin): 1.878
- optical density (450 nm) ([2]; Table 8, serum 8285 (HCV), Avidin): 1.592
- optical density (450 nm) ([2]; Table 8, serum 8290 (HCV), Avidin): 0.060
- optical density (450 nm) ([2]; Table 8, serum 8291 (HCV), Avidin): 1.539
- PEPTIDE ELISA (O.D.) ([2]; serum 0843): 2.306
- PEPTIDE ELISA (O.D.) ([2]; serum 8240): 2.441
- PEPTIDE ELISA (O.D.) ([2]; serum 8241): 0.545
- PEPTIDE ELISA (O.D.) ([2]; serum 8242): 2.415
- PEPTIDE ELISA (O.D.) ([2]; serum 8332): 1.977
- PEPTIDE ELISA (O.D.) ([2]; serum 8339): 2.030
- PEPTIDE ELISA (O.D.) ([2]; serum 8350): 1.982
- PEPTIDE ELISA (O.D.) ([2]; serum 8377): 2.181
- PEPTIDE ELISA (O.D.) ([2]; serum 8378): 2.140
- PEPTIDE ELISA (O.D.) ([2]; serum 8388): 2.463
